PubChem BioAssay (NCI)
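A five-concentration, 48-hour dose response in 96-well plates underlies each endpoint, interpolated linearly between surrounding concentrations. GI50 marks 50% less growth. TGI is the concentration that stops growth completely.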

Key:
Assay in all cases: DTP human tumour cell line panel, 48 h; in the data active = GI50 below about 0.43 µM; inactive = the rest
ACHN renal = system: ACHN renal
HOP-62 NSCLC = system: HOP-62 NSCLC
KM12 colon = system: KM12 colon
HCT-15 colon = system: HCT-15 colon
786-0 renal = system: 786-0 renal
SNB-75 CNS = system: SNB-75 CNS
SK-MEL-2 melanoma = system: SK-MEL-2 melanoma
HL-60(TB) leukemia = system: HL-60(TB) leukemia
MCF7 breast = system: MCF7 breast
BT-549 breast = system: BT-549 breast
RPMI-8226 leukemia = system: RPMI-8226 leukemia
CAKI-1 renal = system: CAKI-1 renal
A549 NSCLC = system: A549 NSCLC
IGROV1 ovarian = system: IGROV1 ovarian
UACC-62 melanoma = system: UACC-62 melanoma
HCC-2998 colon = system: HCC-2998 colon
SNB-19 CNS = system: SNB-19 CNS
UACC-257 melanoma = system: UACC-257 melanoma
SN12C renal = system: SN12C renal
SF-295 CNS = system: SF-295 CNS
DU-145 prostate = system: DU-145 prostate
MOLT-4 leukemia = system: MOLT-4 leukemia
U251 CNS = system: U251 CNS
NCI-H226 lung = system: NCI-H226 lung
SK-OV-3 ovarian = system: SK-OV-3 ovarian
NCI-H23 lung = system: NCI-H23 lung
NCI-H522 lung = system: NCI-H522 lung
UO-31 renal = system: UO-31 renal
OVCAR-3 ovarian = system: OVCAR-3 ovarian
NCI-H460 lung = system: NCI-H460 lung
OVCAR-5 ovarian = system: OVCAR-5 ovarian
LOX IMVI melanoma = system: LOX IMVI melanoma
HOP-92 NSCLC = system: HOP-92 NSCLC
T-47D breast = system: T-47D breast
MDA-MB-435 = system: MDA-MB-435
OVCAR-4 ovarian = system: OVCAR-4 ovarian
RXF 393 renal = system: RXF 393 renal
A498 renal = system: A498 renal
COLO 205 colon = system: COLO 205 colon
SK-MEL-28 melanoma = system: SK-MEL-28 melanoma
TK-10 renal = system: TK-10 renal
PC-3 prostate = system: PC-3 prostate
EKVX NSCLC = system: EKVX NSCLC
NCI/ADR-RES ovarian = system: NCI/ADR-RES ovarian
HCT-116 colon = system: HCT-116 colon
SW-620 colon = system: SW-620 colon
OVCAR-8 ovarian = system: OVCAR-8 ovarian
HS 578T breast = system: HS 578T breast
MALME-3M melanoma = system: MALME-3M melanoma
SK-MEL-5 melanoma = system: SK-MEL-5 melanoma
SF-539 CNS = system: SF-539 CNS
MDA-MB-231 breast = system: MDA-MB-231 breast
SF-268 CNS = system: SF-268 CNS
K-562 leukemia = system: K-562 leukemia
CCRF-CEM leukemia = system: CCRF-CEM leukemia
M14 melanoma = system: M14 melanoma
HT29 colon = system: HT29 colon
SR leukemia = system: SR leukemia

CNC(=O)NCC1OC(n2cnc3c(NC(=O)Nc4ccccc4)ncnc32)C(O[Si](C)(C)C(C)(C)C)C1CC(=O)N(C)OC (stereo unspecified)
> 91.2 µM: TGI (SK-MEL-2 melanoma)
4.06 µM: TGI (SR leukemia)
> 81.1 µM: TGI (IGROV1 ovarian)
> 63.5 µM: TGI (A498 renal)
4.23 µM: TGI (HL-60(TB) leukemia)
> 100 µM: TGI (ACHN renal) | TGI (HOP-62 NSCLC) | TGI (KM12 colon) | TGI (HCT-15 colon) | TGI (786-0 renal) | TGI (SNB-75 CNS) | TGI (MCF7 breast) | TGI (BT-549 breast) | TGI (CAKI-1 renal) | TGI (A549 NSCLC) | TGI (UACC-62 melanoma) | TGI (HCC-2998 colon) | TGI (SNB-19 CNS) | TGI (UACC-257 melanoma) | TGI (SN12C renal) | TGI (SF-295 CNS) | TGI (DU-145 prostate) | TGI (U251 CNS) | TGI (NCI-H226 lung) | TGI (SK-OV-3 ovarian) | TGI (NCI-H23 lung) | TGI (NCI-H522 lung) | TGI (UO-31 renal) | TGI (OVCAR-3 ovarian) | TGI (NCI-H460 lung) | TGI (OVCAR-5 ovarian) | TGI (LOX IMVI melanoma) | TGI (T-47D breast) | TGI (MDA-MB-435) | TGI (OVCAR-4 ovarian) | TGI (COLO 205 colon) | TGI (SK-MEL-28 melanoma) | TGI (TK-10 renal) | TGI (PC-3 prostate) | TGI (EKVX NSCLC) | TGI (NCI/ADR-RES ovarian) | TGI (HCT-116 colon) | TGI (SW-620 colon) | TGI (OVCAR-8 ovarian) | TGI (HS 578T breast) | TGI (MALME-3M melanoma) | TGI (SK-MEL-5 melanoma) | TGI (SF-539 CNS) | TGI (MDA-MB-231 breast) | TGI (SF-268 CNS) | TGI (K-562 leukemia) | TGI (CCRF-CEM leukemia) | TGI (M14 melanoma) | TGI (HT29 colon)
> 49.3 µM: TGI (HOP-92 NSCLC)
inactive: GI50 (ACHN renal) 7.87 µM | GI50 (HOP-62 NSCLC) 22 µM | GI50 (KM12 colon) 10.6 µM | GI50 (HCT-15 colon) 4.8 µM | GI50 (786-0 renal) 7.06 µM | GI50 (SNB-75 CNS) 6.32 µM | GI50 (SK-MEL-2 melanoma) 8.08 µM | GI50 (HL-60(TB) leukemia) 1690 nM | GI50 (MCF7 breast) 4.11 µM | GI50 (BT-549 breast) 9.58 µM | GI50 (RPMI-8226 leukemia) 1580 nM | GI50 (CAKI-1 renal) 53.8 µM | GI50 (A549 NSCLC) 5.88 µM | GI50 (IGROV1 ovarian) 4 µM | GI50 (UACC-62 melanoma) 41.9 µM | GI50 (HCC-2998 colon) 30.6 µM | GI50 (SNB-19 CNS) > 23 µM | GI50 (UACC-257 melanoma) 8.25 µM | GI50 (SN12C renal) 17.1 µM | GI50 (SF-295 CNS) 9.09 µM | GI50 (DU-145 prostate) 14.7 µM | GI50 (MOLT-4 leukemia) 2230 nM | GI50 (U251 CNS) 4.85 µM | GI50 (NCI-H226 lung) 15.8 µM | GI50 (SK-OV-3 ovarian) > 72.6 µM | GI50 (NCI-H23 lung) 23.6 µM | GI50 (NCI-H522 lung) 7.76 µM | GI50 (UO-31 renal) 5.7 µM | GI50 (OVCAR-3 ovarian) 5.84 µM | GI50 (NCI-H460 lung) 5.32 µM | GI50 (OVCAR-5 ovarian) 16.8 µM | GI50 (LOX IMVI melanoma) 5.12 µM | GI50 (HOP-92 NSCLC) 4.33 µM | GI50 (T-47D breast) 7.41 µM | GI50 (MDA-MB-435) 5.66 µM | GI50 (OVCAR-4 ovarian) 16.6 µM | GI50 (RXF 393 renal) 4.02 µM | GI50 (A498 renal) 6.06 µM | GI50 (COLO 205 colon) 12.3 µM | GI50 (SK-MEL-28 melanoma) 5.21 µM | GI50 (TK-10 renal) 9.17 µM | GI50 (PC-3 prostate) 4.95 µM | GI50 (EKVX NSCLC) 12.3 µM | GI50 (NCI/ADR-RES ovarian) > 100 µM | GI50 (HCT-116 colon) 3.95 µM | GI50 (SW-620 colon) > 100 µM | GI50 (OVCAR-8 ovarian) 6.52 µM | GI50 (HS 578T breast) 7.39 µM | GI50 (MALME-3M melanoma) 7.51 µM | GI50 (SK-MEL-5 melanoma) 4.92 µM | GI50 (SF-539 CNS) 8.21 µM | GI50 (MDA-MB-231 breast) 8.47 µM | GI50 (SF-268 CNS) 8.29 µM | GI50 (K-562 leukemia) 3.12 µM | GI50 (CCRF-CEM leukemia) 6.37 µM | GI50 (M14 melanoma) 8.36 µM | GI50 (HT29 colon) 4.12 µM | GI50 (SR leukemia) 1630 nM
5.4 µM: TGI (RPMI-8226 leukemia)
12.7 µM: TGI (RXF 393 renal)
9.36 µM: TGI (MOLT-4 leukemia)
